Measured values as given in US20070219193A1, “ALKYLAMINE-SUBSTITUTED BICYCLIC ARYL COMPOUNDS USEFUL AS MODULATORS OF PPAR” (KALYPSYS, INC, priority 2006, published 2007).

How the values were obtained:
Assay type in all cases: cell-based
PPAR delta = biological target: T1, PPAR delta (Homo sapiens, UniProt Q03181); assay: Full-length PPAR transcriptional activation assay (PPRE::Luciferase reporter, HEK293 cells), PPAR delta; conditions: transfected HEK293 cells, species of receptor not given
T1 construct: expressed in transfected cells; host or cells: HEK293
T1 sequence (Q03181 1-441): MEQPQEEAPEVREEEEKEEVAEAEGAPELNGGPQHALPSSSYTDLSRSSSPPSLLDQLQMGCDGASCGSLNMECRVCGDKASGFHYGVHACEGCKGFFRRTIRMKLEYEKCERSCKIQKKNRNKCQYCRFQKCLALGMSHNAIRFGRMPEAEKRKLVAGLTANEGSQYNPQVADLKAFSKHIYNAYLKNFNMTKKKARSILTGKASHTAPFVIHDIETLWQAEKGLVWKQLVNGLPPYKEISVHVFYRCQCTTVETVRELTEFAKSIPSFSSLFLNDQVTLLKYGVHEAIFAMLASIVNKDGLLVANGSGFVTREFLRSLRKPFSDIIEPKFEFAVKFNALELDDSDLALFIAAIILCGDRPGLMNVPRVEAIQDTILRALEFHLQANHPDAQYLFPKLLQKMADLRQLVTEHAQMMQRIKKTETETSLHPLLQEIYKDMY
Experimental: (§1) HEK293 cells were seeded the day before transfection into 384-well plates at a cell density of 6,000 cells per well in 40 μl assay medium I (phenol red-free DMEM containing 4% charcoal-dextran stripped FBS, 1% Penicillin-Streptomycin and 1% GlutaMax-1). Then 25 ng of PPRE::Luciferase reporter plasmid, an expression plasmid (25 pg of PPARα, or 40 pg of PPARδ, or 75 pg of PPARγ2), and an appropriate amount of the plasmid pUC19 to bring the total DNA amount to 50 ng was added to 20 μl of phenol-red free DMEM and 150 nL of Fugene 6 and incubated for 30 minutes. The transfection mixtures were then added to the cells and incubated for three hours. 10 μl of test agents in 5% DMSO were then added to the cells and incubated at 37° C. for an additional 18 hours. Luciferase activity was then assayed by adding 25 μl/well of Britelite (Perkin Elmer) according to the manufacturer's protocol and relative light output was measured with an Analyst GT plate reader (Molecular Devices). All experimental points were done in triplicate and the assays were repeated at least 3 times.
(§2) HEK293 cells were seeded the day before transfection in […] dishes at a density of 9×10^6 cells/dish and incubated at 37° C., 10% CO2 for 16-24 hours. Then, […] of PPRE::Luciferase reporter plasmid, an expression plasmid (7.5 ng of PPARα, or 7.5 ng of PPARδ, or 75 ng of PPARγ2), and an appropriate amount of the plasmid pUC19 to bring the total DNA amount to […] were mixed with 54 μl of Fugene 6 in 2 mls of phenol red-free DMEM and incubated for 30 minutes. Transfection mixtures were then incubated with the cells for 18 hours. Cells were then replated into sterile, white TC treated 384-well assay plates at a cell density of 24×10^3 cells/well in 40 μl of assay medium II (phenol-red free DMEM containing 3% charcoal/dextran-stripped FBS, 1% Penicillin-Streptomycin and 1% GlutaMax-1) and incubated at 37° C. for 6 hours. 10 μl of test agents in 5% DMSO were then added to the cells and incubated at 37° C. for an additional 18 hours. Luciferase activity was then assayed by adding 30 μl/well of Britelite (Perkin Elmer) according to the manufacturer's protocol and relative light output was measured with an Analyst GT plate reader (Molecular Devices). All experimental points were done in triplicate and the assays were repeated 3 times.

PPAR alpha = biological target: T2, PPAR alpha (Homo sapiens, UniProt Q07869); assay: Full-length PPAR transcriptional activation assay (PPRE::Luciferase reporter, HEK293 cells), PPAR alpha; conditions: transfected HEK293 cells, species of receptor not given
T2 construct: expressed in transfected cells; host or cells: HEK293
T2 sequence (Q07869 1-468): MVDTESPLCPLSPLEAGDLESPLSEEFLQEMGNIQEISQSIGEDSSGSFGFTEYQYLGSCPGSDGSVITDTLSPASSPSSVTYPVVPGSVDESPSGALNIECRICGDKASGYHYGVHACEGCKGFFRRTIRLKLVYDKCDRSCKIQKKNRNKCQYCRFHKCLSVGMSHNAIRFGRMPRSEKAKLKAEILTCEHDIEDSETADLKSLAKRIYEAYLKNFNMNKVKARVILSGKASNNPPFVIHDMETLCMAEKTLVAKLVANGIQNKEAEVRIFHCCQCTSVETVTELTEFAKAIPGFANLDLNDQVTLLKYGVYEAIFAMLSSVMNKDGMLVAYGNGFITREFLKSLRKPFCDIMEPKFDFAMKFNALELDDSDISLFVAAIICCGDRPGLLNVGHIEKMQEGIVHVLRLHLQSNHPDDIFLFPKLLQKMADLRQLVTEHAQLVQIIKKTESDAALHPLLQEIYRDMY
Experimental: as §1, §2

PPAR gamma = biological target: T3, PPAR gamma (Homo sapiens, UniProt P37231); assay: Full-length PPAR transcriptional activation assay (PPRE::Luciferase reporter, HEK293 cells), PPAR gamma; conditions: transfected HEK293 cells (PPARγ2 plasmid), species of receptor not given
T3 construct: expressed in transfected cells; host or cells: HEK293
T3 sequence (P37231 1-505): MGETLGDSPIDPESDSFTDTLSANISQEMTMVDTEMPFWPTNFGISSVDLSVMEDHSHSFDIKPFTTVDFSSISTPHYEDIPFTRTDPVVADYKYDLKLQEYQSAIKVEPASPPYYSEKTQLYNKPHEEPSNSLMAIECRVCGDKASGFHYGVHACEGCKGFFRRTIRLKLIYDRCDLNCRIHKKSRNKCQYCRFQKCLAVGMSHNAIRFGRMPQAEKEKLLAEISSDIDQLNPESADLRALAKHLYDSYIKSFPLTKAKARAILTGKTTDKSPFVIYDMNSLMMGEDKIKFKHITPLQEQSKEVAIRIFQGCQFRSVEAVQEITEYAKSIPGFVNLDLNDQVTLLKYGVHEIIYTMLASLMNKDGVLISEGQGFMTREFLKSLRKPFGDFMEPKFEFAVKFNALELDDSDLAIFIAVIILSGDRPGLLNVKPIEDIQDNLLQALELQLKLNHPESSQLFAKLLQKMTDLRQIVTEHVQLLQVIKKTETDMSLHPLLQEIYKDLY
Experimental: as §1, §2

SMILES	EC50 (PPAR delta)	EC50 (PPAR alpha)	EC50 (PPAR gamma)
CCc1cnc(N(CCCC2CCc3ccc(CC(=O)O)cc3O2)Cc2ccc(C(F)(F)F)cc2)nc1 (stereo not drawn) [Example 10, (2-{3-[(5-Ethyl-pyrimidin-2-yl)-(4-trifluoromethyl-benzyl)-amino]-propyl}-chroman-7-yl)-acetic acid]	≤ 1000 nM	> 1000 nM	≤ 1000 nM
CCc1cnc(N(CCCC2CCc3c(CC(=O)O)cccc3O2)Cc2ccc(C(F)(F)F)cc2)nc1 (stereo not drawn) [Example 11, (2-{3-[(5-Ethyl-pyrimidin-2-yl)-(4-trifluoromethyl-benzyl)-amino]-propyl}-chroman-5-yl)-acetic acid]	≤ 1000 nM	> 1000 nM	≤ 1000 nM
CCc1cnc(N(CCCC2CCc3ccc(CC(=O)O)cc3O2)Cc2ccc(OC(F)(F)F)cc2)nc1 (stereo not drawn) [Example 12, 2-(2-(3-((5-Ethylpyrimidin-2-yl)(4-(trifluoromethoxy)benzyl)amino)propyl)chroman-7-yl)acetic acid]	≤ 1000 nM	> 1000 nM	≤ 1000 nM
CCc1cnc(N(CCCC2CCc3c(CC(=O)O)cccc3O2)Cc2ccc(OC(F)(F)F)cc2)nc1 (stereo not drawn) [Example 13, 2-(2-(3-((5-Ethylpyrimidin-2-yl)(4-(trifluoromethoxy)benzyl)amino)propyl)chroman-5-yl)acetic acid]	≤ 1000 nM	> 1000 nM	≤ 1000 nM
CCc1cnc(N(CCCC2CCc3ccc(CC(=O)O)cc3O2)CCc2ccc(OC(F)(F)F)cc2)nc1 (stereo not drawn) [Example 14, 2-(2-(3-((5-Ethylpyrimidin-2-yl)(4-(trifluoromethoxy)phenethyl)amino)propyl)chroman-7-yl)acetic acid]	≤ 1000 nM	> 1000 nM	≤ 1000 nM
CCc1cnc(N(CCCC2CCc3c(CC(=O)O)cccc3O2)CCc2ccc(OC(F)(F)F)cc2)nc1 (stereo not drawn) [Example 15, 2-(2-(3-((5-Ethylpyrimidin-2-yl)(4-(trifluoromethoxy)phenethyl)amino)propyl)chroman-5-yl)acetic acid]	≤ 1000 nM	> 1000 nM	≤ 1000 nM
CCc1cnc(N(CCC2CCc3ccc(CC(=O)O)cc3O2)Cc2ccc(C(F)(F)F)cc2)nc1 (stereo not drawn) [Example 16, 2-(2-(2-((5-ethylpyrimidin-2-yl)(4-(trifluoromethyl)benzyl)amino)ethyl)chroman-7-yl)acetic acid]	≤ 1000 nM	≤ 1000 nM	≤ 1000 nM
CCc1cnc(N(CCC2CCc3c(CC(=O)O)cccc3O2)Cc2ccc(C(F)(F)F)cc2)nc1 (stereo not drawn) [Example 17, 2-(2-(2-((5-ethylpyrimidin-2-yl)(4-(trifluoromethyl)benzyl)amino)ethyl)chroman-5-yl)acetic acid]	≤ 1000 nM	≤ 1000 nM	≤ 1000 nM
